Patent US20250332173A1, “COMPOUNDS AND METHODS FOR MODULATING NUCLEIC ACID SPLICING” (REMIX THERAPEUTICS INC., priority 2021, published 2025)
Like-named read-outs stand apart in the source and are kept apart here.

Tests used:
[1] = tested on: HTT mRNA; assay: RT-qPCR splicing assay, HTT canonical junction (CJ) and alternative junction (AJ) mRNA; type: cell-based, human; conditions: Homo sapiens; for AC50: increase in HTT alternative junction (AJ) mRNA, read-out: HTT AJ AC50
Method: (§1) The expression of a target mRNA was measured by detecting the formation of an exon-exon junction in the canonical transcript (CJ). A compound mediated exon-inclusion event was detected by observing an increase in formation of a new junction with an alternative exon (AJ). Real-time qPCR assays were used to detect these splicing switches and interrogate the potency of various compounds towards different target genes. A high-throughput real time quantitative PCR (RT-qPCR) assay was developed to measure these two isoforms of the mRNA (CJ and AJ) for exemplary genes, such as HTT, SMN2, and MYB, together with a control housekeeping gene, GAPDH or GUSB or PPIA, used for normalization. Briefly, the A673 or K562 cell line was treated with various compounds described herein (e.g., compounds of Formula (I)). After treatment, the levels of the HTT, MYB, or SMN2 mRNA targets were determined from each sample of cell lysate by cDNA synthesis followed by qPCR.
(§2) • Cells-to-CT 1-step kit: ThermoFisher A25602, Cells-to-CT lysis reagent: ThermoFisher 4391851C, TaqMan™ Fast Virus 1-Step Master Mix: ThermoFisher 4444436 • GAPDH: VIC-PL, ThermoFisher 4326317E (Assay: Hs99999905_m1)—used for K562/suspension cell lines • GUSB: VIC-PL, ThermoFisher 4326320E (Assay: Hs99999908_m1)—used for K562/suspension cell lines • PPIA: VIC-PL, ThermoFisher 4326316E (Assay: Hs99999904_m1)—used for A673/adherent cell lines
(§3) The A673 cell line was cultured in DMEM with 10% FBS. Cells were diluted with full growth media and plated in a 96-well plate (15,000 cells in 100 ul media per well). The plate was incubated at 37° C. with 5% CO2 for 24 hours to allow cells to adhere. An 11-point 3-fold serial dilution of the compounds was made in DMSO then diluted in media in an intermediate plate. Compounds were transferred from the intermediate plate to the cell plate with the top dose at a final concentration of 10 uM in the well. Final DMSO concentration was kept at or below 0.25%. The cell plate was returned to the incubator at 37° C. with 5% CO2 for an additional 24 hours.
(§4) The K562 cell line was cultured in IMDM with 10% FBS. For K562, cells were diluted with full growth media and plated in either a 96-well plate (50,000 cells in 50 uL media per well) or a 384-well plate (8,000-40,000 cells in 45 uL media per well). An 11-point 3-fold serial dilution of the compounds were made in DMSO then diluted in media in an intermediate plate. Compound was transferred from the intermediate plate to the cell plate with the top dose at a final concentration of 10 uM in the well. Final DMSO concentration was kept at or below 0.25%. Final volume was 100 uL for 96-well plate and 50 uL for 384-well plate. The cell plate was then placed in an incubator at 37° C. with 5% CO2 for 24 hours.
(§5) The cells were then gently washed with 50 uL-100 uL cold PBS before proceeding to addition of lysis buffer. 30 uL-50 uL of room temperature lysis buffer with DNAse I (and optionally RNAsin) was added to each well. Cells were shaken/mixed thoroughly at room temperature for 5-10 minutes for lysis to take place and then 3 uL-5 uL of room temperature stop solution was added and wells were shaken/mixed again. After 2-5 minutes, the cell lysate plate was transferred to ice for RT-qPCR reaction setup. The lysates could also be frozen at −80° C. for later use.
(§6) In some cases, a direct lysis buffer was used. An appropriate volume of 3× lysis buffer (10 mM Tris, 150 mM NaCl, 1.5%-2.5% Igepal and 0.1-1 U/uL RNAsin, pH 7.4) was directly added to either K562 or A673 cells in media and mixed by pipetting 3 times. The plates were then incubated at room temperature with shaking/rocking for 20-50 minutes to allow for lysis to take place. After this time, the cell lysate plate was transferred to ice to set up for the RT-qPCR reactions. The lysates could also be frozen at −80° C. for later use.

[2] = tested on: MYB mRNA; assay: RT-qPCR splicing assay, MYB canonical junction (CJ) and alternative junction (AJ) mRNA; type: cell-based, human; conditions: Homo sapiens; for AC50: increase in MYB alternative junction (AJ) mRNA, read-out: MYB AJ AC50
Method: as §1, §2, §3, §4, §5, §6

[3] = tested on: SMN2 mRNA; assay: RT-qPCR splicing assay, SMN2 canonical junction (CJ) mRNA; type: cell-based, human; conditions: Homo sapiens; Table 5 panel; canonical junction qPCR; compound concentration having 50% response in CJ decrease; read-out: SMN2 IC50 (decrease in CJ mRNA levels)
Method: as §1, §3, §4, §5, §6
(§7) To set up 10 uL RT-qPCR reactions, cell lysates were transferred to 384-well qPCR plates containing the master mix according to the table below. The plates were sealed, gently vortexed, and spun down before the run. The volumes were adjusted accordingly in some instances where the reaction was carried in 20 uL. The table below summarizes the components of the RT-qPCR reactions:
(§8) The RT-qPCR reaction was performed using a QuantStudio (ThermoFisher) under the following fast cycling conditions.

[4] = tested on: Target C; assay: RT-qPCR splicing assay panel, Target C canonical junction (CJ) mRNA; type: cell-based, human; conditions: Homo sapiens
Method: as §1, §3, §4, §5, §6, §7, §8

[5] = tested on: K562 (human chronic myelogenous leukemia) cells; assay: Cell Titer Glo 2.0 cell viability assay; type: cell-based; conditions: Homo sapiens, K562, 72 h, K562 cells, 72 hours, Cell Titer Glo 2.0; read-out: K562 GI50
[6] = decrease in HTT canonical junction (CJ) mRNA, RT-qPCR, read-out: HTT CJ IC50
[7] = Table 5 panel, canonical junction qPCR, compound concentration having 50% response in CJ decrease, read-out: HTT IC50 (decrease in CJ mRNA levels)
[8] = Table 5 panel, canonical junction qPCR, compound concentration having 50% response in CJ decrease, read-out: MYB IC50 (decrease in CJ mRNA levels)
[9] = decrease in MYB canonical junction (CJ) mRNA, RT-qPCR, read-out: MYB CJ IC50
[10] = Table 5 panel, canonical junction qPCR, compound concentration having 50% response in CJ decrease, read-out: Target C IC50 (decrease in CJ mRNA levels)

Row | SMILES | IC50 [1, 6] [µM] | AC50 ([1]; RT-qPCR) [µM] | IC50 [1, 7] [µM] | IC50 [2, 8] [µM] | IC50 [2, 9] [µM] | AC50 ([2]; RT-qPCR) [µM] | IC50 [3] [µM] | IC50 [4, 10] [µM] | IC50 ([1]; canonical junction qPCR panel, Table 5, read-out: HTT (decrease in CJ mRNA levels, IC50)) [µM] | IC50 ([2]; canonical junction qPCR panel, Table 5, read-out: MYB (decrease in CJ mRNA levels, IC50)) [µM] | IC50 ([4]; canonical junction qPCR panel, Table 5, read-out: Target C (decrease in CJ mRNA levels, IC50)) [µM] | GI50 [5] [µM]
1 | CN1CCN(c2ccc3nc(-c4ccc5nn(C)cc5c4)[nH]c(=O)c3c2)CC1 [Compound 108] | > 10 | > 10 | > 10 | > 10 | > 10 | > 10 | 1 to 10 | 1 to 10 | – | – | – | –
2 | Cc1cn2cc(-c3nc4ccc(N5CCN(C)CC5)cc4c(=O)[nH]3)cc(F)c2n1 [Compound 111] | 1 to 10 | 1 to 10 | 1 to 10 | 1 to 10 | 1 to 10 | 1 to 10 | 0.1 to 1 | 1 to 10 | – | – | – | –
3 | Cc1cn2cc(-c3nc4ccc(N5CCNCC5)cc4c(=O)[nH]3)cc(F)c2n1 [Compound 115] | > 10 | > 10 | > 10 | 1 to 10 | 0.1 to 1 | 1 to 10 | < 0.1 | > 10 | – | – | – | –
4 | Cc1cc(-c2nc3ccc(N(C)C4CCNCC4)cc3c(=O)[nH]2)cc2cn(C)nc12 [Compound 121, 2-(2,7-dimethyl-2H-indazol-5-yl)-6-(methyl(piperidin-4-yl)amino)quinazolin-4(3H)-one] | > 10 | > 10 | 1 to 10 | > 10 | 1 to 10 | > 10 | 0.1 to 1 | > 10 | – | – | – | –
5 | Cc1cc(-c2ccc3nc(N4CCN(C)CC4)[nH]c(=O)c3c2)cc2cn(C)nc12 [Compound 165] | > 10 | > 10 | > 10 | – | – | – | 0.1 to 1 | – | – | – | – | –
6 | Cc1cc(-c2ccc3nc(N4CCNCC4)[nH]c(=O)c3c2)cc2cn(C)nc12 [Compound 166] | 1 to 10 | 1 to 10 | 1 to 10 | 1 to 10 | 1 to 10 | 1 to 10 | 1 to 10 | 1 to 10 | – | – | – | –
7 | Cc1cc(-c2ccc3nc(NC4CCN(C)CC4)[nH]c(=O)c3c2)cc2cn(C)nc12 [Compound 167] | > 10 | > 10 | > 10 | > 10 | > 10 | > 10 | > 10 | > 10 | – | – | – | –
8 | Cc1cn2nc(-c3ccc4c(c3)CCN(C3CCNCC3)C4=O)cc(C)c2n1 [Compound 185] | 1 to 10 | 0.1 to 1 | 0.1 to 1 | 1 to 10 | 1 to 10 | 1 to 10 | 0.1 to 1 | – | – | – | – | –
9 | Cc1cn2nc(-c3ccc4nc(N5CCNC6(CC6)C5)[nH]c(=O)c4c3)cc(C)c2n1 [Compound 190] | 0.1 to 1 | 0.1 to 1 | 0.1 to 1 | 0.1 to 1 | 0.1 to 1 | 0.1 to 1 | 0.1 to 1 | 0.1 to 1 | – | – | – | –
10 | Cc1cn2cc(-c3ccc4nc(N5CCNC6(CC6)C5)[nH]c(=O)c4c3)cc(F)c2n1 [Compound 191] | > 10 | > 10 | > 10 | > 10 | > 10 | > 10 | > 10 | > 10 | – | – | – | –
11 | Cc1cn2nc(-c3ccc4nc(NC5CCNCC5)[nH]c(=O)c4c3)cc(C)c2n1 [Compound 192] | > 10 | > 10 | > 10 | > 10 | > 10 | > 10 | > 10 | > 10 | – | – | – | –
12 | Cc1cn2cc(-c3ccc4nc(NC5CCNCC5)[nH]c(=O)c4c3)cc(F)c2n1 [Compound 238] | > 10 | > 10 | > 10 | > 10 | > 10 | > 10 | > 10 | > 10 | – | – | – | –
13 | Cc1cc(-c2nc3ccc(N(C)C4CCN(C)CC4)cc3c(=O)[nH]2)cc2cn(C)nc12 [Compound 239] | > 10 | > 10 | > 10 | > 10 | 1 to 10 | > 10 | 1 to 10 | > 10 | – | – | – | –
14 | Cc1cn2nc(-c3cc(C)c4c(=O)n(C5CCNC6(CC6)C5)ncc4n3)cc(C)c2n1 (centres unmarked) [Compound 1552, 6-(4-azaspiro[2.5]octan-7-yl)-2-(2,8-dimethylimidazo[1,2-b]pyridazin-6-yl)-4-methyl-pyrido[2,3-d]pyridazin-5-one] | 0.1 to 1 | 0.1 to 1 | – | – | 0.1 to 1 | 0.1 to 1 | – | – | 0.1 to 1 | 0.1 to 1 | 0.1 to 1 | 0.1 to 1
